According to patent US20260294946A1, “METHOD TO REDUCE FEED CONVERSION RATIO IN A FARMED ANIMAL” (Inbiose N.V., priority 2023, published 2026):

Columns and labels:
Format in all cases: in vivo
Atopobium deltae = assay: Fecal microbiota of calves, shotgun metagenomics; details: T1 (W 5), versus placebo calves, score = −log 10(pvalue)*sign(coef)
Description: (§1) Stools were collected directly from recta of six calves in one selected pen upon rectal inducing at day 29 (W5) and day 57 (W9). The fecal samples (approximately 1 g) were immediately snap frozen using isopropanol-dried ice bath for 1 minute before they were transferred onto dried ice for transportation to a long-term storage at −80° C.
(§2) Total fecal DNA was extracted from 200 mg feces while total upper respiratory tract microbial DNA were extracted from 1 ml DNA shield reagent containing the nasal pharyngeal swab. ZymoBIOMICS™ DNA miniprep kit (Zymo Research) in combination with a FASTPREP® 24 device was used to extract and purify the microbial DNA as instructed by the manufacturer. Purified total DNA were eluted in 100 μl and were quickly checked for the concentration and quality using Nanodrop (Implen NANOPHOTOMETER®) before storage at −20° C.
(§3) Total DNA were submitted to Eurofins (GATC, Germany) to perform metagenomics using their INVIEW metagenome platform. Briefly, total DNA were first fragmented, then ligated with adapter for library preparation. The sequencing was done using Illumina paired end sequencing technology (2×150 bp), guaranteed for 20 million read pairs (40 million reads). Reads were quality-checked with fastqc (bioinformatics.babraham.ac. uk/projects/fastqc/) and trimmed with Trimmomatic (Bolger et al., 2014, Bioinformatics, 30(15): p. 2114-2120; usadellab.org/cms/?page=trimmomatic). Bovine reads were removed by mapping to the cow reference database Bos_taurus_UMD_3.1.1 using BMTagger (bioconda.github.io/recipes/bmtagger/README.html). Profiling of the taxonomic composition and the functional potential of microbial communities was done using Metaphlan (Beghini et al., 2021, Elife 10: e65088; /huttenhower.sph.harvard.edu/humann/).
(§4) Microbiome data was normalized in cpm (counts per million).
(§5) The treatment effect of MMOs in the microbiome data was evaluated per timepoint with Maaslin2 (Mallick et al., 2021, PLoS Computational Biology 17(11): e1009442) using AST transformation and adding compartment as fixed effect. For visualization in the tables a score was calculated equal to −log 10(pvalue)*sign(coef). Spearman correlation was used to evaluate the relation between microbiome and FCR using the cor.test function in the stats package in R.

Bacteroides coprophilus = assay: Fecal microbiota of calves, shotgun metagenomics; details: T2 (W 9), versus placebo calves, score = −log 10(pvalue)*sign(coef)
Description: as §1, §2, §3, §4, §5

[1] = tested on: Bacteroides pectinophilus; assay: Fecal microbiota of calves, shotgun metagenomics; details: T2 (W 9), versus placebo calves, score = −log 10(pvalue)*sign(coef)
Description: as §1, §2, §3, §4, §5

Eubacterium rectale = assay: Fecal microbiota of calves, shotgun metagenomics; details: T1 (W 5), versus placebo calves, score = −log 10(pvalue)*sign(coef)
Description: as §1, §2, §3, §4, §5

Prevotella copri = assay: Fecal microbiota of calves, shotgun metagenomics; details: T1 (W 5), versus placebo calves, score = −log 10(pvalue)*sign(coef)
Description: as §1, §2, §3, §4, §5

Ruminococcus bromii = assay: Fecal microbiota of calves, shotgun metagenomics; details: T2 (W 9), versus placebo calves, score = −log 10(pvalue)*sign(coef)
Description: as §1, §2, §3, §4, §5

[2] = Trial in piglets: body weight, growth, feed intake and feed conversion (pre-weaning, 22 days)
Description: The in vivo experiment was carried out at the commercial pig farm “Degroote Luc” (Bissegem, Belgium).
The experimental design had two treatments: • “Ti” serves as control, i.e., a placebo (water) was drenched during the first 4 days of life, and subsequently a commercial milk replacer as a liquid and creep feed was offered until weaning, • “T2,” a […] solution of 2′FL (it is referred to Example 1) in water was drenched during the first 4 days of life, and subsequently a commercial milk replacer supplemented with 2′FL (warm water was added to 250 g of milk powder to reach 25.000 (w/v)) and creep feed supplemented with 2′FL (10% w/w 2′FL) was offered until weaning. The composition of milk replacer and creep feed are detailed in Table 4.
Within 6 hours after birth of all piglets within a litter, piglets were tagged, weighed and ranked according to live weight. This was d0 of the study. Then, the first drenching was given, i.e., the heaviest piglet in the pen receives Ti, the next piglet T2 and so forth, until 12 piglets of that litter were drenched. In the next litter, the order of treatment application was alternated. This practice was done in 16 litters, and drenching was repeated on d1, d2 and d3. At the d4, […] were allocated to 16 pens with 6 piglets each, in the nursery unit. Ti was applied in 8 pens, and T2 was offered in 8 remaining pens. Piglets were allocated to pens according to litter of origin (from each of the 16 litters; 6 vital, normal to heavy weight piglets, body weight ≥1.7 kg, were taken and half of the piglets were allocated to a pen from T1—those receiving T1 in the first 3 days of life, and others to a pen from T2—those receiving T2 in the first 3 days of life), and to body weight and sex. Piglets were offered the liquid milk replacer through a cup connected to a mixing-tubing system and had free access to milk at all times. Milk intake was accurately measured at pen level. From d14 on, in addition, piglets were offered a creep feed (solid feed in feeder pan). Piglets were weighed at d0, d4, d14 and d22 (day of weaning).
Data was collected with respect to piglet performance (body weight, average daily gain (ADG), average daily feed intake and milk replacer for periods d0-4, d4-14, d14-22, d4-22, d0-22, total creep feed intake for period d14-22 and feed conversion for all periods.
Data were analyzed using appropriate linear mixed model with treatment as fixed effect (T1 vs. T2) and litter as random effect, and body weight at d0 as co-variate if P<0.05. Piglet was used as experimental unit for growth data, whereas pen was the experimental unit for other records.

2′-fucosyllactose [2′FL]
Significant change in counts per million (cpm) of bacteria species (score) (Atopobium deltae): −1.44 | Significant change in counts per million (cpm) of bacteria species (score) (Bacteroides coprophilus): −1.56 | Significant change in counts per million (cpm) of bacteria species (score) [1]: 1.35 | Significant change in counts per million (cpm) of bacteria species (score) (Eubacterium rectale): 1.35 | Significant change in counts per million (cpm) of bacteria species (score) (Prevotella copri): −1.68 | Significant change in counts per million (cpm) of bacteria species (score) (Ruminococcus bromii): 1.65 | body weight, ADG, milk intake, and creep feed intake versus placebo ([2]; 22 days of pre-weaning phase): no significant differences | FCR versus placebo ([2]; 22 days of pre-weaning phase, trend): there is a trend that the FCR is reduced | Body weight ([2]; d 0, P=0.839 vs placebo): 1536 g | ADG (average daily gain) ([2]; d 0-4, P=0.363 vs placebo): 139 g/day | ADG (average daily gain) ([2]; d 0-22, P=0.297 vs placebo): 185 g/day | Body weight ([2]; d 4, P=0.369 vs placebo): 2087 g | ADFI milk (average daily feed intake) ([2]; d 4-14, P=0.555 vs placebo): 149 g DM/d | FCR (milk) ([2]; d 4-14, P=0.835 vs placebo): 1.03 g milk DM/g | ADG (average daily gain) ([2]; d 4-14, P=0.950 vs placebo): 150 g/day | ADG (average daily gain) ([2]; d 4-22, P=0.253 vs placebo): 196 g/day | FCR (milk) ([2]; d 4-22, P=0.268 vs placebo): 1.04 g milk DM/g | ADFI milk (average daily feed intake) ([2]; d 4-22, P=0.834 vs placebo): 202 g DM/d | Body weight ([2]; d 14, P=0.946 vs placebo): 3524 g | FCR (milk + creep feed) ([2]; d 14-22, P=0.038 vs placebo): 1.18 (g milk DM + g creep feed DM)/ | FCR (milk) ([2]; d 14-22, P=0.055 vs placebo): 1.09 g milk DM/g | ADG (average daily gain) ([2]; d 14-22, P=0.134 vs placebo): 250 g/day | ADFI creep feed (average daily feed intake) ([2]; d 14-22, P=0.304 vs placebo): 23.8 g DM/d | ADFI milk (average daily feed intake) ([2]; d 14-22, P=0.885 vs placebo): 270 g DM/d | Body weight ([2]; d 22, P=0.306 vs placebo): 5524 g | FCR versus placebo ([2]; day 14 to 22, milk and creep feed (P=0.038)): even lower | FCR versus placebo ([2]; day 14 to 22, milk intake (P=0.055)): lower
